From US20190365719A1, “COMBINATION TREATMENTS OF HSP90 INHIBITORS FOR ENHANCING TUMOR IMMUNOGENICITY AND METHODS OF USE THEREOF” (Massachusetts Institute of Technology, priority 2018, published 2019)

Tests used:
[1] = cited from earlier work
[2] = system: human peripheral blood mononuclear cells; test: RNA sequencing of ex vivo human peripheral blood mononuclear cells; format: cell-based; settings: 500 nM for 20 hrs
Experimental: Whole blood was collected into lithium-heparin tubes and processed with Histopaque-1077 (Sigma) to isolate peripheral blood mononuclear cells per supplier's instructions. After overnight culture in RPMI160 with 20% autologous plasma, ganetespib (500 nM) or an equal volume of solvent vehicle (DMSO 0.1% v/v) was added to duplicate dishes. Incubation was continued for 24 hours after which cells were collected by centrifugation, lysed in RLT buffer (Qiagen) and total RNA isolated using an RNeasy kit per manufacturer's instructions (Qiagen). Sequencing library preparation was performed by the Whitehead Genome Technology Core using standard Illumina protocols and TruSeq adapters. Single-end, 40 bp sequencing was performed on a HiSeq 2000 instrument. Adapter sequences were trimmed, and reads were aligned to […] using TopHat2 and rpkm values generated with Cufflinks. Differential expression analysis was performed with the Bioconductor package DEseq.
To evaluate the immunosuppressive effect of high level HSP90 inhibition in a more controlled fashion, freshly isolated human peripheral blood mononuclear cells were cultured in ganetespib (500 nM for 20 hrs.) and the effects on RNA expression genome-wide were measured (FIG. 2A).

immune-related genes = test: NanoString immune profiling of whole blood from breast cancer patients given ganetespib; format: in vivo, human; settings: 20-24 hours post intravenous drug administration, recommended Phase II dose
Experimental: Blood samples for gene expression analyses were obtained with informed consent from patients participating in an IRB-approved clinical trial coordinated by the Dana-Farber Cancer Institute, Boston, Mass. (DFCI 11-477, NCT01560416). All samples were processed and analyzed by collaborating investigators in an anonymous fashion to preserve patient confidentiality.
Gene expression measurements using Nanostring codesets were performed with NanoString XT GEx kits. Analyses were performed on total RNA from clinical samples or mouse tumor tissue following manufacturer's instructions. Briefly, 100 ng total RNA (measured by Qubit (Invitrogen)), was mixed with Capture and Reporter probe sets and hybridized for 16-20 hours at 65° C. prior to ramping down to hold at 4° C. Hybridized samples were processed on a Nanostring Prep Station according to manufacturer's instructions and then scanned with an FOV setting of 1100. All files (.rcc) were analyzed using nSolver v3.0 software.
As an approach to examine the impact of HSP90 compromise on the immune system in human cancer patients exposed to recommended dosing of an HSP90i, the RNA expression of immune-related genes in whole blood collected from 20 patients was profiled. […]

[3] = phase I, intravenous infusion days 1, 8 and 15, 4-weekly schedule

For `CC(C)c1cc(-c2n[nH]c(=O)n2-c2ccc3c(ccn3C)c2)c(O)cc1O` [Ganetespib], the “side effects / adverse effects” value ([1]; clinical use) is listed as “diarrhea, fatigue, nausea, and anorexia”, the “MTD as a combination therapy with crizotinib” value ([1]; days 1 and 8 of a 21-day cycle, phase II) is listed as 200 mg/m2 and the ocular toxicity ([1]; human, in vivo) is listed as “No ocular toxicity has been reported”. The “MTD as a monotherapy” value [1, 3] was 216 mg/m^2, the “highest dose with acceptable toxicity (RP2D)” value [1, 3] was 200 mg/m^2 and the “most downregulated Gene Ontology categories” value [2] was “immune-related pathways”. The “most upregulated Gene Ontology categories” value [2] was “RNA splicing and protein folding” and the “expression of immune-related genes in whole blood” value (immune-related genes) was “broad down-regulation of expression across diverse immune-related genes”.
